The numbers were not newly measured in patent US10350188B2, “Use of Neu1 sialidase inhibitors in the treatment of cancer” (priority 2011, dated 2019), which cites them from elsewhere.

Data set [1] addresses T1, sialidase activity associated with TLR ligand treated live BMC-2 macrophage cells (Mus musculus, UniProt O35657).
T1 construct: endogenous in cells; host or cells: BMC-2 macrophage cells
The following applies: 1-2 mM, compared to LPS positive control; cited from earlier work.

Data set [2] concerns Neu1 sialidase. Conditions: NGF treated live TrkA-expressing cells; cited from earlier work.
Another data set has as its target T2, human Neu3 sialidase (Homo sapiens, UniProt Q9UQ49).
T2 sequence (Q9UQ49 1-428): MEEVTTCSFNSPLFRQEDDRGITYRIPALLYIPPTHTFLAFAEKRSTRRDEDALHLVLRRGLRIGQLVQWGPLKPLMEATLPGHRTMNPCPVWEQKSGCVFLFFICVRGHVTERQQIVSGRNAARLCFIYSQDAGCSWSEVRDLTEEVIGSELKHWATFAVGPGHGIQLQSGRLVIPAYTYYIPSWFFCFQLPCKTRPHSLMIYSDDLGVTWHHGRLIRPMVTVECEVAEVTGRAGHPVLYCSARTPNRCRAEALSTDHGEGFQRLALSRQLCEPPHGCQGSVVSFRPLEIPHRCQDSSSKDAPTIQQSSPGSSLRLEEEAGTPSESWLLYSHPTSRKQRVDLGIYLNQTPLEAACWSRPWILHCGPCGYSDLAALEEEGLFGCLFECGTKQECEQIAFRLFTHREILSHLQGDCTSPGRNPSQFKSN
Conditions: in the micromolar range; cited from earlier work.

Data set [3] has as its target T3, Neu1 sialidase (Homo sapiens, UniProt Q99519).
T3 construct: using lysates from mature dendritic cells; host or cells: lysates from mature dendritic cells
Conditions: 2 mM; lysates from mature dendritic cells; cited from earlier work.

A further data set deals with Neu3 sialidase. The following applies: 2 mM; lysates from mature dendritic cells; cited from earlier work.
For the next data set, the system named is TLR4/MD2. The following applies: HEK293 cells stably transfected with TLR4/MD2; cited from earlier work.

As to `CC(=O)N[C@H]1[C@H]([C@H](O)[C@H](O)CO)OC(C(=O)O)=C[C@@H]1N=C(N)N` [zanamivir, 4-guanidino-Neu5Ac2en], the “Inhibition of LPS induced sialidase activity (in words)” value in data set [1] was “limited effect”. Moreover, the “Inhibition of Neu1 sialidase activity (in words)” value in the data set on Neu1 sialidase [2] is recorded as “limited inhibitory effect”; at Neu1 sialidase [3], “completely inhibited”. Moreover, the “Inhibition of human Neu3 sialidase (in words)” value on human Neu3 sialidase is on record as “significantly inhibited”. Also, the “Inhibition of Neu3 sialidase activity (in words)” value with Neu3 sialidase is recorded as “completely inhibited”.
Consider “galectin-1: α-2,3-sialyl specific galectin-1”, for which the “Inhibition of TLR ligand-induced NFκB responses (in words)” value with TLR4/MD2 is on record as “significantly inhibited”.
